pIC50: −log10 of the molar value.
Columns and labels:
[1] = biological target: T1, G2019S human LRRK2, catalytic site (Homo sapiens, UniProt Q5S007, G2019S); experiment: TR-FRET LanthaScreen Eu Kinase Binding Assay, LRRK2 G2019S; settings: LRRK2(G2019); one range stated for wt and G2019; read-out: IC50, Activity Toward LRRK2(G2019)
T1 construct: G2019S human LRRK2, catalytic site; purchased ThermoFisher
Outline: (§1)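 Kinase Buffer A holding, as final levels, 8 nM full-length NUAK1, 2 nM Eu-anti-His antibody and 5 nM Tracer 236, or 5 nM LRRK2 catalytic site (wt or G2019S), 2 nM Eu-anti-GST and 10 nM Tracer 236. Compound added, then 1 h at room temperature before TR-FRET ratio readout.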

[2] = biological target: T2, wt human TYK2, catalytic site (Homo sapiens, UniProt P29597); experiment: HTRF KinEASE assay, TYK2; type: biochemical; settings: 1 μM ATP; read-out: IC50, Activity Toward TYK2
T2 construct: wt human TYK2, catalytic site; purchased SignalChem
T2 sequence (P29597 897-1176 limits assumed): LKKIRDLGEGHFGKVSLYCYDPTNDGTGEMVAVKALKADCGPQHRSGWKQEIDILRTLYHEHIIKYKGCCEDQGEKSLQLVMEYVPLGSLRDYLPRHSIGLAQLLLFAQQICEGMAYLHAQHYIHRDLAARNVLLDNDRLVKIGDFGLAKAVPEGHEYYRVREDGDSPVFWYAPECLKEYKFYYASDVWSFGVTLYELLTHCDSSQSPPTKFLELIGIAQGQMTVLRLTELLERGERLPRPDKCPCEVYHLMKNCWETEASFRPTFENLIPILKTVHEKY
Outline: (§2)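 Kinase reaction run at room temperature for at least 30 min: 2 nM TYK2 with 1 μM ATP, or 1 nM JAK2 with 100 μM ATP, each with 1 μM biotin-TK substrate. Phosphorylation detected by HTRF (60 min antibody/XL665) and evaluated from emission ratios.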

[3] = biological target: T3, wt human LRRK2, catalytic site (Homo sapiens, UniProt Q5S007); experiment: TR-FRET LanthaScreen Eu Kinase Binding Assay, LRRK2 wt; settings: one range stated for wt and G2019, read-out: IC50, Activity Toward LRRK2(Wt)
T3 construct: 5 nM wt human LRRK2, catalytic site; purchased ThermoFisher
Outline: as §1

[4] = biological target: T4, wt human JAK2, catalytic site (Homo sapiens, UniProt O60674); experiment: HTRF KinEASE assay, JAK2; type: biochemical; settings: assay format not given (Z'-LYTE or HTRF KinEASE); read-out: IC50, Activity Toward JAK2
T4 construct: wt human JAK2, catalytic site; purchased SignalChem
Outline: as §2

[5] = biological target: T5, wt human NUAK1, full length (Homo sapiens, UniProt O60285); experiment: TR-FRET LanthaScreen Eu Kinase Binding Assay, NUAK1; settings: read-out: IC50, Activity Toward NUAK1
T5 construct: 8 nM wt human NUAK1, full length (ThermoFisher/USA); purchased ThermoFisher
T5 sequence (O60285 1-661): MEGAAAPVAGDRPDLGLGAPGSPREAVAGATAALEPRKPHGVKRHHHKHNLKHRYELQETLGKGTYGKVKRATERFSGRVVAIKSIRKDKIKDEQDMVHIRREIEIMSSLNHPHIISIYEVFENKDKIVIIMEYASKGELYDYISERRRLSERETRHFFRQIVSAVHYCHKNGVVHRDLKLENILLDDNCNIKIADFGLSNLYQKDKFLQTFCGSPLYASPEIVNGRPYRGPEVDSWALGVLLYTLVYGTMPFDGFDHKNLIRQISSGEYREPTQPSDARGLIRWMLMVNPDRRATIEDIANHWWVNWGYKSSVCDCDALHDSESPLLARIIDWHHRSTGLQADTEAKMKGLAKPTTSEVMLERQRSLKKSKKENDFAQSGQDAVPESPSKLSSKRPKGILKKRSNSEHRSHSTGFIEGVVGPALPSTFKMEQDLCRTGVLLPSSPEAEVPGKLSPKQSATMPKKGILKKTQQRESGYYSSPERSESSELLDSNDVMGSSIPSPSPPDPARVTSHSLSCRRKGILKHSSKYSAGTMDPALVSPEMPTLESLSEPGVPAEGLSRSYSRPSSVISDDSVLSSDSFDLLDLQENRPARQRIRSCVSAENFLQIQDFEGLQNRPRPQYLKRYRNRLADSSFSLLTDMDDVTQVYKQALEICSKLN
Outline: as §1

[6] = biological target: T6, wt human JAK1, catalytic site (Homo sapiens, UniProt P23458); experiment: HTRF KinEASE assay, JAK1; type: biochemical; settings: 2.5 μM ATP; read-out: IC50, Activity Toward JAK1
T6 construct: wt human JAK1, catalytic site; purchased ThermoFisher
Outline: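 Compounds in DMSO dilution were mixed with kinase, biotin-TK substrate and ATP and reacted for ≥30 min at room temperature. Detection reagents (antibody, streptavidin-XL665) were read 60 min later as HTRF, with emission ratios analysed per KinEASE protocol.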

T1 sequence (Q5S007 970-2527 G2019S limits assumed): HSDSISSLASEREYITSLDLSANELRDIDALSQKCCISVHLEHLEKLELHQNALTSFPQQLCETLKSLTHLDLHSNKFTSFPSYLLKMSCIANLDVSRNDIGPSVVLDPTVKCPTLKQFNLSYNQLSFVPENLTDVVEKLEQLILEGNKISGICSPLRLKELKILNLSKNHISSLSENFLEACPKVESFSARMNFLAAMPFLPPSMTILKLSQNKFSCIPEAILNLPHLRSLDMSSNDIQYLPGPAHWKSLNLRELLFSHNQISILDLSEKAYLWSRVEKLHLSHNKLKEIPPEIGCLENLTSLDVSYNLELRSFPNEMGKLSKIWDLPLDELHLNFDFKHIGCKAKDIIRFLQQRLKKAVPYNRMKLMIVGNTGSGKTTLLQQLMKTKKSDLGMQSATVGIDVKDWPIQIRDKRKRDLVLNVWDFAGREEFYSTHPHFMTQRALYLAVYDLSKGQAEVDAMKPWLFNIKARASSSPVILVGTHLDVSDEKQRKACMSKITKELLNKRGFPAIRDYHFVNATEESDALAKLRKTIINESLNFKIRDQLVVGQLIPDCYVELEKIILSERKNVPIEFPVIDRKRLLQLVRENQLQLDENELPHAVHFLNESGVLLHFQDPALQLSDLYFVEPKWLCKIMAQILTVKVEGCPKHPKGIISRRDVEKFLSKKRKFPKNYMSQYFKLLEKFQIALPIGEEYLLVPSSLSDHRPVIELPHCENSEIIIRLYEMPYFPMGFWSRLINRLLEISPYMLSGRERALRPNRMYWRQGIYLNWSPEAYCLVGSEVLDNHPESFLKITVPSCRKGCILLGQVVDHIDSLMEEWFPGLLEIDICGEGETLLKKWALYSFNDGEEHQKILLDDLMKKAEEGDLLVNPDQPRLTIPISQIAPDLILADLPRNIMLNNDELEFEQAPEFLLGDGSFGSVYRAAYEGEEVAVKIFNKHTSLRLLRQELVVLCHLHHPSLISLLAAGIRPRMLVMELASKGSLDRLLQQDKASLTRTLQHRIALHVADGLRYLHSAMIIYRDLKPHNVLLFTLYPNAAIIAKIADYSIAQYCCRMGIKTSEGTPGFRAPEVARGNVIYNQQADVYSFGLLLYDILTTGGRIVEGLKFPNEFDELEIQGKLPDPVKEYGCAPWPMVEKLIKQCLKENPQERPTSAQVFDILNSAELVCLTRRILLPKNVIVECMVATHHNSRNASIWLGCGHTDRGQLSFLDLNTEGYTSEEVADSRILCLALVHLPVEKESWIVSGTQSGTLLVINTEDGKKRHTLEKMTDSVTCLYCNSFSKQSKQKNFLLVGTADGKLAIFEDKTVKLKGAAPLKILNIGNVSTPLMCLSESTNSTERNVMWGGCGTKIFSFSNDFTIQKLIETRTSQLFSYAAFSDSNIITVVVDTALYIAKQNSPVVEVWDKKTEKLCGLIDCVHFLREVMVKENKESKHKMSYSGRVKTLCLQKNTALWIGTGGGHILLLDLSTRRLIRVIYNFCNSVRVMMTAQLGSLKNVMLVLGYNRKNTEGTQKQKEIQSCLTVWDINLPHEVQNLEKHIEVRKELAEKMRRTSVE
T3 sequence (Q5S007 970-2527 limits assumed): as the sequence (Q5S007 970-2527 G2019S limits assumed) above, with S1050G counted along it
T4 sequence (O60674 849-1124 limits assumed): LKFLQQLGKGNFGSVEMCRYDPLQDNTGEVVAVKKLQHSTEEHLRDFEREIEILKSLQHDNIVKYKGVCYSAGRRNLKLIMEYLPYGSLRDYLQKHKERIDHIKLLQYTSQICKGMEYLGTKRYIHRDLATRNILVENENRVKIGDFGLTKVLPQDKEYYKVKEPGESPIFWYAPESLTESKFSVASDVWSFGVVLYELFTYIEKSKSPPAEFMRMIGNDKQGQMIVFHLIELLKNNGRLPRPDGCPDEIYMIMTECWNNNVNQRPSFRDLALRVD
T6 sequence (P23458 875-1153 limits assumed): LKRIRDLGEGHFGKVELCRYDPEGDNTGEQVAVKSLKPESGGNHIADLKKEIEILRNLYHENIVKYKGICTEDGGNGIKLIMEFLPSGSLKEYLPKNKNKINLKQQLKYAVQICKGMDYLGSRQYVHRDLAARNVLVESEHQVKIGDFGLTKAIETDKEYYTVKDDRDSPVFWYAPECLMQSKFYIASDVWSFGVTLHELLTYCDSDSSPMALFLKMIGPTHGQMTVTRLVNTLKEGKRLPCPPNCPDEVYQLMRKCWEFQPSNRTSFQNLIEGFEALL

| Structure (SMILES) | pIC50 [1] | pIC50 [2] | pIC50 [3] | pIC50 [4] | pIC50 [5] | pIC50 [6] |
| --- | --- | --- | --- | --- | --- | --- |
| NC(=O)c1nn(-c2c(F)cccc2Cl)cc1Nc1ccc(C(=O)N2CCCC2)cc1 [compound 227, 1-(2-chloro-6-fluorophenyl)-4-((4-(pyrrolidine-1-carbonyl)phenyl)amino)-1H-pyrazole-3-carboxamide] | 6.00 to 7.00 | > 8.00 | 6.00 to 7.00 | 6.00 to 7.00 | 7.00 to 8.00 | 7.00 to 8.00 |
| NC(=O)c1nn(-c2c(F)cccc2F)cc1Nc1ccc(C(=O)NC2CCOCC2)cc1 [compound 13, 1-(2,6-difluorophenyl)-4-((4-((tetrahydro-2H-pyran-4-yl)carbamoyl)phenyl)amino)-1H-pyrazole-3-carboxamide] | 6.00 to 7.00 | 7.00 to 8.00 | 6.00 to 7.00 | 6.00 to 7.00 | 7.00 to 8.00 | 6.00 to 7.00 |
| CCn1ccnc1-c1ccc(Nc2cn(-c3c(Cl)cccc3Cl)nc2C(N)=O)cc1 [compound 229, 1-(2,6-dichlorophenyl)-4-((4-(1-ethyl-1H-imidazol-2-yl)phenyl)amino)-1H-pyrazole-3-carboxamide] | 6.00 to 7.00 | 7.00 to 8.00 | 6.00 to 7.00 | 6.00 to 7.00 | 6.00 to 7.00 | > 8.00 |
| NC(=O)c1nn(-c2c(Cl)cccc2Cl)cc1Nc1ccc(-c2nncn2C2CCCC2)cc1 [compound 202, 4-((4-(4-cyclopentyl-4H-1,2,4-triazol-3-yl)phenyl)amino)-1-(2,6-dichlorophenyl)-1H-pyrazole-3-carboxamide] | 6.00 to 7.00 | 7.00 to 8.00 | 6.00 to 7.00 | 6.00 to 7.00 | 6.00 to 7.00 | 6.00 to 7.00 |
| NC(=O)c1nn(-c2c(F)cccc2F)cc1Nc1ccc(C(=O)N2CCOCC2)cc1 [compound 12, 1-(2,6-difluorophenyl)-4-((4-(morpholine-4-carbonyl)phenyl)amino)-1H-pyrazole-3-carboxamide] | 7.00 to 8.00 | 7.00 to 8.00 | 7.00 to 8.00 | 6.00 to 7.00 | 6.00 to 7.00 | 6.00 to 7.00 |
| CCn1cnnc1-c1ccc(Nc2cn(-c3c(Cl)cccc3Cl)nc2C(N)=O)cc1 [compound 87, 1-(2,6-dichlorophenyl)-4-((4-(4-ethyl-4H-1,2,4-triazol-3-yl)phenyl)amino)-1H-pyrazole-3-carboxamide] | 6.00 to 7.00 | > 8.00 | 6.00 to 7.00 | 6.00 to 7.00 | 6.00 to 7.00 | 7.00 to 8.00 |
| NC(=O)c1nn(-c2c(F)cccc2Cl)cc1Nc1ccc(C(=O)N2CCOCC2)cc1 [compound 22, 1-(2-chloro-6-fluorophenyl)-4-((4-(morpholine-4-carbonyl)phenyl)amino)-1H-pyrazole-3-carboxamide] | 6.00 to 7.00 | > 8.00 | 6.00 to 7.00 | 6.00 to 7.00 | 7.00 to 8.00 | 7.00 to 8.00 |
| Cn1cnnc1-c1ccc(Nc2cn(-c3c(Cl)cccc3Cl)nc2C(N)=O)cc1 [compound 88, 1-(2,6-dichlorophenyl)-4-((4-(4-methyl-4H-1,2,4-triazol-3-yl)phenyl)amino)-1H-pyrazole-3-carboxamide] | 6.00 to 7.00 | > 8.00 | 6.00 to 7.00 | 6.00 to 7.00 | 6.00 to 7.00 | 7.00 to 8.00 |
| N#Cc1cccc(F)c1-n1cc(Nc2ccc(C(=O)N3CCS(=O)(=O)CC3)cc2)c(C(N)=O)n1 [compound 452, 1-(2-cyano-6-fluorophenyl)-4-((4-(1,1-dioxidothiomorpholine-4-carbonyl)phenyl)amino)-1H-pyrazole-3-carboxamide] | 6.00 to 7.00 | > 8.00 | 6.00 to 7.00 | 6.00 to 7.00 | 6.00 to 7.00 | > 8.00 |

— patent publication US20230373985A1 (Origenis Gmbh, priority 2020, published 2023)
